From PMC7413254 (Nature Communications, 2020)

Legend:
Format in all cases: cell-based
[1] = target: T1, PfCRT^Dd2 (Plasmodium falciparum, UniProt Q9N623, A220S/I356T/K76T/M74I/N326S/N75E/Q271E/R371I); test: [3H]CQ uptake into Xenopus oocytes, cis-inhibition by unlabelled solute; settings: PfCRTDd2 oocytes, background [3H]CQ accumulation subtracted, normalised to oocyte type control
Outline: (§1)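 Washed oocytes (ten per treatment) were exposed to label in pH 5.5 ND96 for 1.5 h at 27.5 °C. Buffer was then removed, cells rinsed in ice-cold ND96, lysed in SDS and counted.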

[2] = target: T2, PfCRT^Ecu1110 (Plasmodium falciparum, UniProt Q9N623, A220S/I356L/K76T/N326D); test: as above; settings: PfCRTEcu1110 oocytes, background [3H]CQ accumulation subtracted, normalised to oocyte type control
T2 sequence (Q9N623 whole entry A220S/I356L/K76T/N326D): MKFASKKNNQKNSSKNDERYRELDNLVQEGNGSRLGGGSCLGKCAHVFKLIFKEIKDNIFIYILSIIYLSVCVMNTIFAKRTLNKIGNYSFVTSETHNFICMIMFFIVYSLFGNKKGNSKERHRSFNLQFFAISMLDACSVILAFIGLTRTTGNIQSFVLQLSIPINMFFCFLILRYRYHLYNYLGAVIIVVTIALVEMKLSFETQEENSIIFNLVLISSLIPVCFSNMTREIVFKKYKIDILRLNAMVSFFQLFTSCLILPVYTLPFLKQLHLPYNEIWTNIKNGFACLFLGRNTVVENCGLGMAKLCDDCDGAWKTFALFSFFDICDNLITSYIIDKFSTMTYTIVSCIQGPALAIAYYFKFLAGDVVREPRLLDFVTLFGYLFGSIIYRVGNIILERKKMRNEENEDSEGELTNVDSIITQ
Outline: as §1

[3] = target: PfCRT^3D7 (Plasmodium falciparum, UniProt Q8IBZ9); test: cell-based; settings: for PfCRT-mediated [3H]CQ transport, trans-stimulation (% PfCRT3D7 control): PfCRT3D7 oocytes, normalised to oocyte type control; for [3H]CQ transport, PfCRT3D7 (% PfCRT3D7 control): trans-stimulation, solute 45 mM injected (estimated intracellular)
Sequence of PfCRT^3D7 (Q8IBZ9 59-398): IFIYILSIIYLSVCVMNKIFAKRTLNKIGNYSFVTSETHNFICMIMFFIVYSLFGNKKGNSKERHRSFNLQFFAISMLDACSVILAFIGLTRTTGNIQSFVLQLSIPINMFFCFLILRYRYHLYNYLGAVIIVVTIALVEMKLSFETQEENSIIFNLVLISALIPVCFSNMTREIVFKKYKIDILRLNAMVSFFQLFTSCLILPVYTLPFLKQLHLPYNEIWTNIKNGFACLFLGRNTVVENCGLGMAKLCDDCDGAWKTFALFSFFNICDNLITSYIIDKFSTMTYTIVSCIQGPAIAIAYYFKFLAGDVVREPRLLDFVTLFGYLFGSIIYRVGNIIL
Outline: (§2)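 Transport measured in Xenopus oocytes expressing the transporters, 1.5 h at 27.5 °C in ND96 pH 5.5 unless noted. For trans-stimulation, VF-6 injected in 25 nL ND96 at pH 5.0–7.0 or Na^+-free (choline) buffer; intracellular levels based on ~400 nL oocyte volume. Ten oocytes per treatment, ≥4 experiments.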

[4] = target: T1, PfCRT^Dd2; test: cell-based; settings: PfCRTDd2 oocytes, normalised to oocyte type control
Outline: as §2

[5] = target: T2, PfCRT^Ecu1110; test: cell-based; settings: PfCRTEcu1110 oocytes, normalised to oocyte type control
Outline: as §2

[6] = target: T3, PfNT1 (Plasmodium falciparum, UniProt Q8IDM6); test: cell-based; settings: trans-stimulation, solute 45 mM injected (estimated intracellular)
T3 construct: expressed in transfected cells; host or cells: Xenopus laevis oocytes (stage V-VI), cRNA-injected
T3 sequence (Q8IDM6 whole entry): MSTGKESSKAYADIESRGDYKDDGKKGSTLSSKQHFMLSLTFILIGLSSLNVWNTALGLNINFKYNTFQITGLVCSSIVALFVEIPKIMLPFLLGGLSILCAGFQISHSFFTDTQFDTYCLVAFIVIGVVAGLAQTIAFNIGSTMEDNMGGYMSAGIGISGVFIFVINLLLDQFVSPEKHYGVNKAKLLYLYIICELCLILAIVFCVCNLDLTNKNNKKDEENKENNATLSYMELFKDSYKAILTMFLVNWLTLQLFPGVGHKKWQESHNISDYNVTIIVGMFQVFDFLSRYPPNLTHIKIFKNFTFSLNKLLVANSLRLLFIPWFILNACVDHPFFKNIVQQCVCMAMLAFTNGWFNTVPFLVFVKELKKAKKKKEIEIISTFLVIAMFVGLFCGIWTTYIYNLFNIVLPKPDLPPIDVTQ
Outline: as §2

[7] = [test solute]i = 5 mM (intracellular)
[8] = [test solute]i = 45 mM (intracellular; 30 mM for some solutes due to solubility)

T1 sequence (Q9N623 whole entry A220S/I356T/K76T/M74I/N326S/N75E/Q271E/R371I): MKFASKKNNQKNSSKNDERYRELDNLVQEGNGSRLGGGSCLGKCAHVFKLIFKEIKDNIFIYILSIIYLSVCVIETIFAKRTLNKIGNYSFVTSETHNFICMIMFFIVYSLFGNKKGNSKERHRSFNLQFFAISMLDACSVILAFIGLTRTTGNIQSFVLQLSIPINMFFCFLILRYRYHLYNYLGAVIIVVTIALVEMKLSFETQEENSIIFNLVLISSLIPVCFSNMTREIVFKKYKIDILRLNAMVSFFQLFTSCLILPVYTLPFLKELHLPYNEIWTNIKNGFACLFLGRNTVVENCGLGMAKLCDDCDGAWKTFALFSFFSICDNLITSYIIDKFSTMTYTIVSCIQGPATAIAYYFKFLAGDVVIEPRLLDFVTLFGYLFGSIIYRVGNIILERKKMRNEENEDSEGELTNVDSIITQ

| Sequence | PfCRT-mediated [3H]CQ transport, cis-inhibition (% PfCRTDd2 control) ([1]; [test solute] = 0.5 mM) | PfCRT-mediated [3H]CQ transport, cis-inhibition (% PfCRTDd2 control) ([1]; [test solute] = 1 mM) | PfCRT-mediated [3H]CQ transport, cis-inhibition (% PfCRTDd2 control) ([1]; [test solute] = 2 mM) | PfCRT-mediated [3H]CQ transport, cis-inhibition (% PfCRTEcu1110 control) ([2]; [test solute] = 0.5 mM) | PfCRT-mediated [3H]CQ transport, cis-inhibition (% PfCRTEcu1110 control) ([2]; [test solute] = 1 mM) | PfCRT-mediated [3H]CQ transport, cis-inhibition (% PfCRTEcu1110 control) ([2]; [test solute] = 2 mM) | PfCRT-mediated [3H]CQ transport, trans-stimulation (% PfCRT3D7 control) [3, 7] | PfCRT-mediated [3H]CQ transport, trans-stimulation (% PfCRT3D7 control) [3, 8] | [3H]CQ transport, PfCRT3D7 (% PfCRT3D7 control) ([3]; Experiment 1) | [3H]CQ transport, PfCRT3D7 (% PfCRT3D7 control) ([3]; Experiment 2) | [3H]CQ transport, PfCRT3D7 (% PfCRT3D7 control) ([3]; Experiment 3) | [3H]CQ transport, PfCRT3D7 (% PfCRT3D7 control) ([3]; Experiment 4) | PfCRT-mediated [3H]CQ transport, trans-stimulation (% PfCRTDd2 control) [4, 7] | PfCRT-mediated [3H]CQ transport, trans-stimulation (% PfCRTDd2 control) [4, 8] | PfCRT-mediated [3H]CQ transport, trans-stimulation (% PfCRTEcu1110 control) [5, 7] | PfCRT-mediated [3H]CQ transport, trans-stimulation (% PfCRTEcu1110 control) [5, 8] | [3H]CQ transport, PfNT1 (% PfCRTDd2 control) ([6]; Experiment 1) | [3H]CQ transport, PfNT1 (% PfCRTDd2 control) ([6]; Experiment 2) | [3H]CQ transport, PfNT1 (% PfCRTDd2 control) ([6]; Experiment 3) | [3H]CQ transport, PfNT1 (% PfCRTDd2 control) ([6]; Experiment 4) |
| --- | --- | --- | --- | --- | --- | --- | --- | --- | --- | --- | --- | --- | --- | --- | --- | --- | --- | --- | --- | --- |
| DLHAHKLR [DR-8] | 47 ± 3.9 % PfCRTDd2 control | 31 ± 2.1 % PfCRTDd2 control | 12 ± 0.9 % PfCRTDd2 control | 58 ± 1.2 % PfCRTEcu1110 control | 42 ± 2.6 % PfCRTEcu1110 control | 28 ± 2.4 % PfCRTEcu1110 control | 130 ± 5.2 % PfCRT3D7 control | 181 ± 5.2 % PfCRT3D7 control | 184.56 % PfCRT3D7 control | 199.32 % PfCRT3D7 control | 173.32 % PfCRT3D7 control | 194.32 % PfCRT3D7 control | 100 ± 2.9 % PfCRTDd2 control | 110 ± 3.7 % PfCRTDd2 control | 130 ± 3.3 % PfCRTEcu1110 control | 139 ± 3.7 % PfCRTEcu1110 control | 3.43 % PfCRTDd2 control | 3.47 % PfCRTDd2 control | 3.21 % PfCRTDd2 control | 3.51 % PfCRTDd2 control |
| AHAGEYGAEALE [AE-12] |  |  |  |  |  |  |  |  | 100.93 % PfCRT3D7 control | 94.28 % PfCRT3D7 control | 100.75 % PfCRT3D7 control | 102.32 % PfCRT3D7 control |  |  |  |  | 2.23 % PfCRTDd2 control | 2.37 % PfCRTDd2 control | 2.71 % PfCRTDd2 control | 2.43 % PfCRTDd2 control |
